Entries after “also recorded” stand apart in the source; their conditions may differ. Marks after values point to notes of the source that are not given here.
Tests used:
[1] = tested on: skin pigmentation of Yucatan swine; experiment: Depigmenting effect of topical application on dark-skinned Yucatan swine (pigment grade); type: in vivo; details: for Mean pigment Grade +/− SD (Week 12): topical 20 μl twice daily, five days per week; for Mean pigment Grade +/− SD (Week 12) / mean pigment grade +/− SD: scale 0 to 4, 4 = normal skin color; for mean pigment grade +/− SD: collated experiments; for effect of HG/PG/DMI/EtOH vehicle on depigmenting action: HG/PG/DMI/EtOH with or without 2% (wt/wt) IPM, compared with PG/EtOH
Procedure: The following nonlimiting examples further illustrate certain preferred embodiments of the present invention. The formulations were tested experimentally on Yucatan swine with dark skin. The Yucatan pigskin shares many physiologic and morphologic characteristics with human skin. For example, as described in U.S. Pat. No. 5,470,567, the thickness and general morphology of epidermis and dermis, tritiated thymidine labeling pattern and index of epidermal cells, epidermal cell turnover time, as well as size, orientation, and distribution of vessels in skin are similar to that in humans. Varying concentrations of 4-cyclopentylresorcinol and 4-cyclohexylresorcinol were administered to the back of Yucatan swine using various carriers. Yucatan swine with dark skin were used in this study. Swine were obtained from Charles River Laboratories, Windham, Me., and Sinclair Laboratories, MO. Seven sites measuring approximately 3 cm×3 cm were marked on each side of the animal's spine, between the shoulder blade and hipbone. The sites were far enough apart so that there was no cross-over. Multiple treatments were performed on the back of each animal. Each animal in the experiment received the same treatments. Each spot was topically treated with 20 μl of test solution applied twice daily, five days per week. This amounts to the same dose of active agent. Solutions were administered by pipetting the exact volume to the designated area with a micropipette and then spreading the solution. Each spot or test site on the animal's skin was graded 3 times a week on a scale of 0 to 4 for pigment change, erythema and scaling. Treatments were continued until pigmentation was reduced to a grade 1 level (marked uniform decrease in pigmentation) or for up to 12 weeks. Results were analyzed using different types of statistical analysis, ANOVA, Kruskal-Wallis test and Dunnett's multiple comparison, as indicated below. ANOVA is a statistical test that assumes sampled data is from populations that follow a Gaussian bell-shaped distribution and which works well, especially with large numbers, even if the distribution is only approximately Gaussian. The Kruskal-Wallis test is a nonparametric test that compares three or more unpaired groups. The Dunnett's test is a procedure for comparing each experimental mean with the control mean. For each graph presented, it is indicated which statistical tests were performed.

Yucatan swine skin = details: in vivo
Procedure: Seven sites measuring approximately 3 cm×3 cm were marked on each side of the animal's spine, between the shoulder blade and hipbone. The sites were far enough apart so that there was no cross-over. Multiple treatments were performed on the back of each animal. Each animal in the experiment received the same treatments. Each spot was topically treated with 20 μl of test solution applied twice daily, five days per week. This amounts to the same dose of active agent. Solutions were administered by pipetting the exact volume to the designated area with a micropipette and then spreading the solution. Each spot or test site on the animal's skin was graded 3 times a week on a scale of 0 to 4 for pigment change, erythema and scaling. Treatments were continued until pigmentation was reduced to a grade 1 level (marked uniform decrease in pigmentation) or for up to 12 weeks.

[2] = tested on: skin pigmentation of Yucatan swine; experiment: Reversibility of depigmentation (repigmentation) after treatment discontinuation; type: in vivo; details: 6 weeks after discontinuation following 12 weeks of topical treatment; 1% 4-cyclopentylresorcinol, 2% 4-cyclohexylresorcinol in HG/DMI/PG/EtOH (5/15/40/40)
Procedure: Each spot was topically treated with 20 μl of test solution applied twice daily, five days per week. This amounts to the same dose of active agent. Solutions were administered by pipetting the exact volume to the designated area with a micropipette and then spreading the solution. Each spot or test site on the animal's skin was graded 3 times a week on a scale of 0 to 4 for pigment change, erythema and scaling. Treatments were continued until pigmentation was reduced to a grade 1 level (marked uniform decrease in pigmentation) or for up to 12 weeks. Pigmentation was monitored for 6 weeks after discontinuation of treatment following 12 weeks of topical treatment with 1% 4-cyclopentylresorcinol and 2% 4-cyclohexylresorcinol in HG/DMI/PG/EtOH (5/15/40/40).

[3] = 2% in HG/PG/DMI/EtOH (5/40/15/40)

Row | Compound | pigmentation versus the same agent in PG/EtOH vehicle ([1]; 1% and 2% in HG/PG/DMI/EtOH compared with PG/EtOH) | pigmentation versus vehicle control ([1]; 1% and 2% in HG/PG/DMI/EtOH, Kruskal-Wallis test and Dunnett's multiple comparison) | Mean pigment Grade +/− SD (Week 12) ([1]; 1% in DMI/HG/PG/EtOH, 0 = complete depigmentation) | mean pigment grade +/− SD ([1]; 1% in HG/PG/DMI/EtOH (5/40/15/40)) | mean pigment grade +/− SD ([1]; 1% in HG/PG/DMI/EtOH + 2% IPM) | mean pigment grade +/− SD ([1]; 1% in PG/EtOH (3/7), 0 = complete depigmentation) | mean pigment grade +/− SD [1, 3] | mean pigment grade +/− SD ([1]; 2% in HG/PG/DMI/EtOH + 2% IPM) | mean pigment grade +/− SD ([1]; 2% in PG/EtOH (3/7)) | effect of HG/PG/DMI/EtOH vehicle on depigmenting action [1] | irritation (Yucatan swine skin) | repigmentation after discontinuation of treatment [2] | Mean pigment Grade +/− SD (Week 12) ([1]; 2% in DMI/HG/PG/EtOH, 0 = complete depigmentation) | mean pigment grade +/− SD ([1]; 5% in PG/EtOH (5/5))
1 | Oc1ccc(C2CCCC2)c(O)c1 [4-cyclopentylresorcinol] | not statistically different | statistically different from vehicle | 2.8 +/− 0.4* | 2.8 +/−0.6* | 2.0 +/− 1.2* | 3.3 +/− 0.7 | 2.0 +/− 0.7* | 1.4 +/− 0.9* | 2.4 +/− 0.9* | improved the depigmentation efficacy | No irritation was apparent | signs of gradual repigmentation |  | 
2 | Oc1ccc(C2CCCCC2)c(O)c1 [4-cyclohexylresorcinol] |  |  |  |  |  |  | 2.8 +/− 0.6* | 2.4 +/− 1.1* | 3.0 +/− 0.8 | improved the depigmenting action; also recorded: improved the depigmentation efficacy | No irritation was apparent | signs of gradual repigmentation | 3 +/− 0* | 3.0 +/− 0*

Source: patent US20060257340A1, “Formulation for skin-lightening agents” (priority 2003, published 2006)
